Assay results published in ChEMBL document CHEMBL1201862, “PubChem BioAssay data set” (2004).
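96-well plates; 48 h exposure; 5 concentrations. Endpoints by linear interpolation between flanking doses. Not reached: highest tested concentration assigned. Abbreviation: GI50, concentration required for 50% inhibition of growth.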 The source made the active and inactive calls. No stated cut-off is given here; in the data, active = GI50 up to about 1.1 µM and inactive = higher.

Tests used:
Assay in all cases: NCI-60 cell line screen, 48 h
786-0 = test system: 786-0
A498 = test system: A498
A549 = test system: A549
ACHN = test system: ACHN
BT-549 = test system: BT-549
CAKI-1 = test system: CAKI-1
CCRF-CEM = test system: CCRF-CEM
COLO 205 = test system: COLO 205
DU-145 = test system: DU-145
HCC 2998 = test system: HCC 2998
HCT-116 = test system: HCT-116
HCT-15 = test system: HCT-15
HOP-62 = test system: HOP-62
HOP-92 = test system: HOP-92
HT-29 = test system: HT-29
Hs-578T = test system: Hs-578T
IGROV-1 = test system: IGROV-1
K562 = test system: K562
KM12 = test system: KM12
M14 = test system: M14
MCF7 = test system: MCF7
MDA-MB-231 = test system: MDA-MB-231
MDA-MB-435 = test system: MDA-MB-435
MDA-N = test system: MDA-N
MOLT-4 = test system: MOLT-4
Malme-3M = test system: Malme-3M
NCI-H226 = test system: NCI-H226
NCI-H23 = test system: NCI-H23
NCI-H460 = test system: NCI-H460
NCI-H522 = test system: NCI-H522
NCI/ADR-RES = test system: NCI/ADR-RES
OVCAR-3 = test system: OVCAR-3
OVCAR-4 = test system: OVCAR-4
OVCAR-5 = test system: OVCAR-5
OVCAR-8 = test system: OVCAR-8
PC-3 = test system: PC-3
RPMI-8226 = test system: RPMI-8226
RXF 393 = test system: RXF 393
SF-268 = test system: SF-268
SF-295 = test system: SF-295
SF-539 = test system: SF-539
SK-MEL-28 = test system: SK-MEL-28
SK-MEL-2 = test system: SK-MEL-2
SK-MEL-5 = test system: SK-MEL-5
SK-OV-3 = test system: SK-OV-3
SN12C = test system: SN12C
SNB-75 = test system: SNB-75
SR = test system: SR
SW-620 = test system: SW-620
T47D = test system: T47D
TK-10 = test system: TK-10
U-251 = test system: U-251
UACC-257 = test system: UACC-257
UACC-62 = test system: UACC-62
UO-31 = test system: UO-31
HL-60 = test system: HL-60
LOX IMVI = test system: LOX IMVI
SNB-19 = test system: SNB-19

What does the source list for `O=C1CC(=O)NC(NN2C(=O)CSC2C(=O)c2ccco2)=N1` (configuration not stated)?
GI50 (786-0): > 100 µM (inactive); GI50 (A498): > 100 µM (inactive); GI50 (A549): > 100 µM (inactive); GI50 (ACHN): > 100 µM (inactive); GI50 (BT-549): > 100 µM (inactive); GI50 (CAKI-1): > 100 µM (inactive); GI50 (CCRF-CEM): > 100 µM (inactive); GI50 (COLO 205): > 100 µM (inactive); GI50 (DU-145): > 100 µM (inactive); GI50 (HCC 2998): > 100 µM (inactive); GI50 (HCT-116): > 100 µM (inactive); GI50 (HCT-15): > 100 µM; GI50 (HOP-62): > 100 µM (inactive); GI50 (HOP-92): > 100 µM (inactive); GI50 (HT-29): > 100 µM (inactive); GI50 (Hs-578T): > 100 µM (inactive); GI50 (IGROV-1): > 100 µM (inactive); GI50 (K562): > 100 µM (inactive); GI50 (KM12): 3.05 µM (inactive); GI50 (M14): > 100 µM (inactive); GI50 (MCF7): > 100 µM (inactive); GI50 (MDA-MB-231): > 100 µM (inactive); GI50 (MDA-MB-435): > 100 µM (inactive); GI50 (MDA-N): > 100 µM (inactive); GI50 (MOLT-4): > 100 µM (inactive); GI50 (Malme-3M): > 100 µM (inactive); GI50 (NCI-H226): > 100 µM (inactive); GI50 (NCI-H23): > 100 µM (inactive); GI50 (NCI-H460): > 100 µM (inactive); GI50 (NCI-H522): > 100 µM (inactive); GI50 (NCI/ADR-RES): > 100 µM (inactive); GI50 (OVCAR-3): > 100 µM (inactive); GI50 (OVCAR-4): > 100 µM (inactive); GI50 (OVCAR-5): > 100 µM (inactive); GI50 (OVCAR-8): > 100 µM (inactive); GI50 (PC-3): > 100 µM (inactive); GI50 (RPMI-8226): > 100 µM (inactive); GI50 (RXF 393): > 100 µM (inactive); GI50 (SF-268): > 100 µM (inactive); GI50 (SF-295): 78.7 µM (inactive); GI50 (SF-539): > 100 µM (inactive); GI50 (SK-MEL-28): > 100 µM (inactive); GI50 (SK-MEL-2): > 100 µM (inactive); GI50 (SK-MEL-5): > 100 µM (inactive); GI50 (SK-OV-3): > 100 µM (inactive); GI50 (SN12C): > 100 µM (inactive); GI50 (SNB-75): 12.2 µM (inactive); GI50 (SR): > 100 µM (inactive); GI50 (SW-620): > 100 µM (inactive); GI50 (T47D): > 100 µM (inactive); GI50 (TK-10): > 100 µM (inactive); GI50 (U-251): > 100 µM (inactive); GI50 (UACC-257): > 100 µM (inactive); GI50 (UACC-62): > 100 µM (inactive); GI50 (UO-31): > 100 µM (inactive)

How did the GI50 (786-0) turn out when `C/C(=N\NC(=S)N1CCCC1)c1nc2cccnc2[nH]1` was run?
Its GI50 is 0.177 µM (active).

And the GI50 (A498)?
Its GI50 is 0.869 µM (active).

And the GI50 (A549)?
The GI50 was 0.223 µM (active).

And the GI50 (ACHN)?
The GI50 was 0.0897 µM (active).

And the GI50 (BT-549)?
The GI50 was 0.129 µM (active).

What about the GI50 (CAKI-1) of the same molecule?
Its GI50 is 0.37 µM (active).

And the GI50 (CCRF-CEM)?
Its GI50 is 0.0638 µM (active).

What about the GI50 (COLO 205) of the same molecule?
The GI50 was 0.378 µM (active).

What about the GI50 (DU-145) of the same molecule?
The GI50 was 0.175 µM (active).

And the GI50 (HCC 2998)?
Its GI50 is 19.3 µM (inactive).

What about the GI50 (HCT-116) of the same molecule?
The GI50 was 0.163 µM (active).

What about the GI50 (HCT-15) of the same molecule?
Its GI50 is 0.137 µM.

What about the GI50 (HL-60) of the same molecule?
The GI50 was 0.162 µM (active).

And the GI50 (HOP-62)?
Its GI50 is 0.356 µM (active).

What about the GI50 (HOP-92) of the same molecule?
The GI50 was 0.681 µM (active).

And the GI50 (HT-29)?
The GI50 was 0.394 µM (active).

What about the GI50 (Hs-578T) of the same molecule?
The GI50 was 13.2 µM (inactive).

And the GI50 (IGROV-1)?
Its GI50 is 0.354 µM (active).

And the GI50 (K562)?
Its GI50 is 0.349 µM (active).

And the GI50 (KM12)?
Its GI50 is 0.321 µM (active).

And the GI50 (LOX IMVI)?
Its GI50 is 0.178 µM (active).

What about the GI50 (M14) of the same molecule?
Its GI50 is 0.357 µM (active).

And the GI50 (MCF7)?
Its GI50 is 0.33 µM (active).

What about the GI50 (MDA-MB-231) of the same molecule?
Its GI50 is 16.5 µM (inactive).

What about the GI50 (MDA-MB-435) of the same molecule?
Its GI50 is 0.416 µM (active).

What about the GI50 (MDA-N) of the same molecule?
The GI50 was 0.979 µM (active).

And the GI50 (MOLT-4)?
Its GI50 is 0.171 µM (active).

What about the GI50 (Malme-3M) of the same molecule?
The GI50 was 0.583 µM (active).

And the GI50 (NCI-H226)?
The GI50 was 0.277 µM (active).

And the GI50 (NCI-H23)?
The GI50 was 0.679 µM (active).

What about the GI50 (NCI-H460) of the same molecule?
The GI50 was 0.0612 µM (active).

And the GI50 (NCI-H522)?
The GI50 was 11.1 µM (inactive).

What about the GI50 (NCI/ADR-RES) of the same molecule?
Its GI50 is 0.335 µM (active).

What about the GI50 (OVCAR-3) of the same molecule?
The GI50 was 0.35 µM (active).

And the GI50 (OVCAR-4)?
Its GI50 is 0.302 µM (active).

And the GI50 (OVCAR-5)?
Its GI50 is 0.457 µM (active).

What about the GI50 (OVCAR-8) of the same molecule?
The GI50 was 0.304 µM (active).

What about the GI50 (PC-3) of the same molecule?
Its GI50 is 0.355 µM (active).

What about the GI50 (RPMI-8226) of the same molecule?
Its GI50 is 0.553 µM (active).

What about the GI50 (SF-268) of the same molecule?
The GI50 was 0.185 µM (active).

And the GI50 (SF-295)?
The GI50 was 0.254 µM (active).

What about the GI50 (SF-539) of the same molecule?
The GI50 was 0.0863 µM (active).

What about the GI50 (SK-MEL-28) of the same molecule?
Its GI50 is 0.349 µM (active).

What about the GI50 (SK-MEL-2) of the same molecule?
The GI50 was 4.34 µM (inactive).

What about the GI50 (SK-MEL-5) of the same molecule?
The GI50 was 0.217 µM (active).

And the GI50 (SK-OV-3)?
The GI50 was 0.442 µM (active).

And the GI50 (SN12C)?
Its GI50 is 0.378 µM (active).

And the GI50 (SNB-19)?
The GI50 was 0.37 µM (active).

What about the GI50 (SNB-75) of the same molecule?
Its GI50 is 3.85 µM (inactive).

And the GI50 (SR)?
Its GI50 is 0.202 µM (active).

What about the GI50 (SW-620) of the same molecule?
The GI50 was 1.22 µM (inactive).

And the GI50 (T47D)?
The GI50 was 0.432 µM (active).

And the GI50 (TK-10)?
Its GI50 is 0.557 µM (active).

And the GI50 (U-251)?
The GI50 was 0.0962 µM (active).

What about the GI50 (UACC-257) of the same molecule?
The GI50 was 0.289 µM (active).

What about the GI50 (UACC-62) of the same molecule?
Its GI50 is 0.259 µM (active).

And the GI50 (UO-31)?
The GI50 was 0.0634 µM (active).
